Where two headings read alike, the source gives them in different places. One block for each compound: values may come before it.
System: AsPC-1 cells
Assay: phospho-ERK HTRF assay in AsPC-1 cells, 4 h treatment
Format: cell-based
[1] = Homo sapiens, ASPC1, AsPC-1, 4h, Table 1b, read-out: PERK IC50 (AsPC-1, 4h)
[2] = Homo sapiens, ASPC1, AsPC-1, 4H, Table 1a class column, read-out: pERK IC50 activity range (*)
[3] = Homo sapiens, ASPC1, AsPC-1, 4H, Table 1a, read-out: PERK IC50 (AsPC-1, 4H)

SMILES: CN(C)C(=O)c1nn2c(c1Cl)CN(c1nc(OC[C@@]34CCCN3C/C(=C\F)C4)nc3c1CO[C@H](c1c(F)c(N)cc(Cl)c1C(F)(F)F)C3)CCC2 [247a, 5-((S)-7-(3-amino-5-chloro-2-fluoro-6-(trifluoromethyl)phenyl)-2-(((S,Z)-2-(fluoromethylene)tetrahydro-1H-pyrrolizin-7a(5H)-yl)methoxy)-7,8-dihydro-5H-pyrano[4,3-d]pyrimidin-4-yl)-3-chloro-N,N-dimethyl-5,6,7,8-tetrahydro-4H-pyrazolo[1,5-a][1,4]diazepine-2-carboxamide]
IC50 [1]: < 10 nM

SMILES: CN(C)C(=O)c1nn2c(c1Cl)CN(c1nc(OC[C@@]34CCCN3C/C(=C\F)C4)nc3c1CO[C@@H](c1c(F)c(N)cc(Cl)c1C(F)(F)F)C3)CCC2 [247b, 5-((R)-7-(3-amino-5-chloro-2-fluoro-6-(trifluoromethyl)phenyl)-2-(((S,Z)-2-(fluoromethylene)tetrahydro-1H-pyrrolizin-7a(5H)-yl)methoxy)-7,8-dihydro-5H-pyrano[4,3-d]pyrimidin-4-yl)-3-chloro-N,N-dimethyl-5,6,7,8-tetrahydro-4H-pyrazolo[1,5-a][1,4]diazepine-2-carboxamide]
IC50 [2]: > 500 nM | IC50 [3]: 615 nM

SMILES: CN(C)C(=O)c1nn2c(c1Cl)CN(c1nc(OC[C@@]34CCCN3CC(=C(F)F)C4)nc3c1CO[C@H](c1c(F)c(N)cc(Cl)c1C(F)(F)F)C3)CCC2 [248a, 5-((S)-7-(3-amino-5-chloro-2-fluoro-6-(trifluoromethyl)phenyl)-2-(((S)-2-(difluoromethylene)tetrahydro-1H-pyrrolizin-7a(5H)-yl)methoxy)-7,8-dihydro-5H-pyrano[4,3-d]pyrimidin-4-yl)-3-chloro-N,N-dimethyl-5,6,7,8-tetrahydro-4H-pyrazolo[1,5-a][1,4]diazepine-2-carboxamide]
IC50 [1]: < 10 nM

SMILES: CN(C)C(=O)c1nn2c(c1Cl)CN(c1nc(OC[C@@]34CCCN3CC(=C(F)F)C4)nc3c1CO[C@@H](c1c(F)c(N)cc(Cl)c1C(F)(F)F)C3)CCC2 [248b, 5-((R)-7-(3-amino-5-chloro-2-fluoro-6-(trifluoromethyl)phenyl)-2-(((S)-2-(difluoromethylene)tetrahydro-1H-pyrrolizin-7a(5H)-yl)methoxy)-7,8-dihydro-5H-pyrano[4,3-d]pyrimidin-4-yl)-3-chloro-N,N-dimethyl-5,6,7,8-tetrahydro-4H-pyrazolo[1,5-a][1,4]diazepine-2-carboxamide]
IC50 [2]: > 500 nM | IC50 [3]: > 2500 nM

SMILES: [2H]C([2H])([2H])N(C(=O)c1nn2c(c1Cl)CN(c1nc(OC[C@@]34CCCN3C[C@H](F)C4)nc3c1CO[C@@H](c1c(F)c(N)cc(Cl)c1C(F)(F)F)C3)CCC2)C([2H])([2H])[2H] [250b]
IC50 [2]: 10 to 30 nM

SMILES: CN1CCN(c2nc(OC[C@@]34CCCN3C[C@H](F)C4)nc3c2COC(c2c(C(F)(F)F)ccc(N)c2F)C3)CCC1=O (stereo partly shown) [compound 201]
IC50 [2]: > 500 nM | IC50 [3]: > 10000 nM

SMILES: CN(C)C(=O)c1nc2c(s1)CCCN(c1nc(OC[C@@]34CCCN3C[C@H](F)C4)nc3c1CO[C@H](c1c(C(F)(F)F)ccc(N)c1F)C3)C2 [compound 202]
IC50 [2]: > 500 nM | IC50 [3]: > 10000 nM

SMILES: Nc1ccc(C(F)(F)F)c(C2Cc3nc(OC[C@@]45CCCN4C[C@H](F)C5)nc(N4CCNCC(=O)C4)c3CO2)c1F (stereo partly shown) [compound 203]
IC50 [2]: > 500 nM | IC50 [3]: > 10000 nM

SMILES: Nc1ccc(C(F)(F)F)c([C@@H]2Cc3nc(OC[C@@]45CCCN4C[C@H](F)C5)nc(N4CCCS(=O)(=O)CC4)c3CO2)c1F [compound 204]
IC50 [2]: > 500 nM | IC50 [3]: > 10000 nM

SMILES: Nc1ccc(C(F)(F)F)c([C@@H]2Cc3nc(OC[C@@]45CCCN4C[C@H](F)C5)nc(N4CCNC(=O)CC4)c3CO2)c1F [compound 205]
IC50 [2]: > 500 nM | IC50 [3]: > 10000 nM

SMILES: Nc1ccc(C(F)(F)F)c(C2Cc3nc(OC[C@@]45CCCN4C[C@H](F)C5)nc(N4CCCC(=O)CC4)c3CO2)c1F (stereo partly shown) [compound 206]
IC50 [2]: > 500 nM | IC50 [3]: > 10000 nM

SMILES: Nc1ccc(C(F)(F)F)c(C2Cc3nc(OC[C@@]45CCCN4C[C@H](F)C5)nc(N4CCNC5CS(=O)(=O)C[C@H]54)c3CO2)c1F (stereo partly shown) [compound 207]
IC50 [2]: > 500 nM | IC50 [3]: > 10000 nM

SMILES: CN(C)C(=O)c1nc2c(o1)CCCN(c1nc(OC[C@@]34CCCN3C[C@H](F)C4)nc3c1COC(c1c(C(F)(F)F)ccc(N)c1F)C3)C2 (stereo partly shown) [compound 208]
IC50 [2]: > 500 nM | IC50 [3]: 1440 nM

SMILES: CN(C)C(=O)c1nc2c(s1)CN(c1nc(OC[C@@]34CCCN3C[C@H](F)C4)nc3c1CO[C@H](c1c(C(F)(F)F)ccc(N)c1F)C3)CCC2 [compound 209]
IC50 [2]: 101 to 500 nM | IC50 [3]: 479 nM

SMILES: Nc1ccc(C(F)(F)F)c(C2Cc3nc(OC[C@@]45CCCN4C[C@H](F)C5)nc(N4CCNCC(=O)C4)c3CO2)c1F (stereo partly shown) [compound 210]
IC50 (AsPC-1, 4H, Table 1a class column, read-out: pERK IC50 activity range (*)): > 500 nM | IC50 (AsPC-1, 4H, Table 1a, read-out: PERK IC50 (AsPC-1, 4H)): > 10000 nM

SMILES: CN(C)C(=O)c1nn2c(c1Cl)CN(c1nc(OC[C@@]34CCCN3C[C@H](F)C4)nc3c1COC(c1nc(N)ccc1C(F)(F)F)C3)CCC2 (stereo partly drawn) [compound 217, 5-(7-(6-amino-3-(trifluoromethyl)pyridin-2-yl)-2-(((2R,7aS)-2-fluorotetrahydro-1H-pyrrolizin-7a(5H)-yl)methoxy)-7,8-dihydro-5H-pyrano[4,3-d]pyrimidin-4-yl)-3-chloro-N,N-dimethyl-5,6,7,8-tetrahydro-4H-pyrazolo[1,5-a][1,4]diazepine-2-carboxamide]
IC50 [2]: 101 to 500 nM | IC50 [3]: 312 nM

SMILES: CN(C)C(=O)c1nn2c(c1Cl)CN(c1nc(OC[C@@]34CCCN3C[C@H](F)C4)nc3c1COC(c1c(C(F)(F)F)ccc(Br)c1F)C3)CC1(COC1)C2 (stereo partly shown) [compound 218]
IC50 [2]: > 500 nM | IC50 [3]: > 10000 nM

SMILES: CN(C)C(=O)c1nn2c(c1Cl)CN(c1nc(OC[C@@]34CCCN3C[C@H](F)C4)nc3c1CO[C@H](c1c(C(F)(F)F)ccc(I)c1F)C3)CCC2 [compound 219]
IC50 [2]: > 500 nM | IC50 [3]: 896 nM

SMILES: CN(C)C(=O)c1nn2c(c1Cl)CN(c1nc(OC[C@@]34CCCN3C[C@H](F)C4)nc3c1CO[C@H](c1c(C(F)(F)F)ccc(Br)c1F)C3)CCC2 [compound 220]
IC50 [2]: > 500 nM | IC50 [3]: 1040 nM

SMILES: CN(C)C(=N)c1nn2c(c1Cl)CN(c1nc(OC[C@@]34CCCN3C[C@H](F)C4)nc3c1CO[C@H](c1c(C(F)(F)F)ccc(N)c1F)C3)CCC2 [compound 221]
IC50 [2]: > 500 nM | IC50 [3]: > 10000 nM

SMILES: CN(C)C(=O)c1nn2c(c1Cl)CN(c1nc(OC[C@@]34CCCN3C[C@H](F)C4)nc3c1COC(c1c(C(F)(F)F)ccc(N)c1F)C3)CC1(COC1)C2 (stereo partly shown) [compound 222]
IC50 [2]: > 500 nM | IC50 [3]: > 10000 nM

SMILES: CN(C)C(=S)c1nn2c(c1Cl)CN(c1nc(OC[C@@]34CCCN3C[C@H](F)C4)nc3c1CO[C@H](c1c(C(F)(F)F)ccc(N)c1F)C3)CCC2 [compound 223]
IC50 [2]: 101 to 500 nM | IC50 [3]: 147 nM

SMILES: CN(C)C(=O)c1nn2c(c1Br)CN(c1nc(OC[C@@]34CCCN3C[C@H](F)C4)nc3c1CO[C@H](c1c(C(F)(F)F)ccc(N)c1F)C3)CCC2 [compound 224]
IC50 [2]: 10 to 30 nM | IC50 [3]: 22 nM

SMILES: COCCN(C)C(=O)c1nn2c(c1Cl)CN(c1nc(OC[C@@]34CCCN3C[C@H](F)C4)nc3c1COC(c1c(C(F)(F)F)ccc(N)c1F)C3)CCC2 (stereo partly shown) [compound 225]
IC50 [2]: 31 to 100 nM | IC50 [3]: 82 nM

SMILES: CN(C)C(=O)n1nc2c(c1Cl)CN(c1nc(OC[C@@]34CCCN3C[C@H](F)C4)nc3c1COC(c1c(C(F)(F)F)ccc(N)c1F)C3)CCC2 (stereo partly shown) [compound 226]
IC50 [2]: > 500 nM | IC50 [3]: 943 nM

SMILES: Nc1ccc(C(F)(F)F)c(C2Cc3nc(OC[C@@]45CCCN4C[C@H](F)C5)nc(N4CCCn5nc(C(=O)N6CCOCC6)c(Cl)c5C4)c3CO2)c1F (stereo partly shown) [compound 227]
IC50 [2]: 31 to 100 nM | IC50 [3]: 97 nM

SMILES: CN(C)C(=O)n1cc2c(n1)CCCN(c1nc(OC[C@@]34CCCN3C[C@H](F)C4)nc3c1COC(c1c(C(F)(F)F)ccc(N)c1F)C3)C2 (stereo partly shown) [compound 228]
IC50 [2]: > 500 nM | IC50 [3]: 3070 nM

SMILES: Cn1cc2c(n1)CCCN(c1nc(OC[C@@]34CCCN3C[C@H](F)C4)nc3c1COC(c1c(C(F)(F)F)ccc(N)c1F)C3)C2 (stereo partly shown) [compound 229]
IC50 [2]: > 500 nM | IC50 [3]: > 10000 nM

SMILES: CN(C)C(=O)c1nn2c(c1Cl)CN(c1nc(OC[C@@]34CCCN3C[C@H](F)C4)nc3c1COC(c1cc(N)ccc1C(F)(F)F)C3)CCC2 (stereo partly drawn) [compound 230, 5-(7-(5-amino-2-(trifluoromethyl)phenyl)-2-(((2R,7aS)-2-fluorotetrahydro-1H-pyrrolizin-7a(5H)-yl)methoxy)-7,8-dihydro-5H-pyrano[4,3-d]pyrimidin-4-yl)-3-chloro-N,N-dimethyl-5,6,7,8-tetrahydro-4H-pyrazolo[1,5-a][1,4]diazepine-2-carboxamide]
IC50 [2]: 31 to 100 nM | IC50 [3]: 37 nM

IC50 [2]: 31 to 100 nM | IC50 [3]: 56 nM
SMILES: CN(C)C(=O)c1nn2c(c1Cl)CN(c1nc(OCC34CCCN3CC(=C(F)F)C4)nc3c1COC(c1c(C(F)(F)F)ccc(N)c1F)C3)CCC2 (stereo not shown) [compound 231]

SMILES: CN(C(=O)c1nn2c(c1Cl)CN(c1nc(OC[C@@]34CCCN3C[C@H](F)C4)nc3c1COC(c1c(C(F)(F)F)ccc(N)c1F)C3)CCC2)C1CC1 (stereo partly drawn) [compound 232, 5-(7-(3-amino-2-fluoro-6-(trifluoromethyl)phenyl)-2-(((2R,7aS)-2-fluorotetrahydro-1H-pyrrolizin-7a(5H)-yl)methoxy)-7,8-dihydro-5H-pyrano[4,3-d]pyrimidin-4-yl)-3-chloro-N-cyclopropyl-N-methyl-5,6,7,8-tetrahydro-4H-pyrazolo[1,5-a][1,4]diazepine-2-carboxamide]
IC50 [2]: 101 to 500 nM | IC50 [3]: 247 nM | IC50 (Homo sapiens, ASPC1, AsPC-1, 4H, individual (R) diastereomer of Ex. 232, read-out: PERK IC50 (AsPC-1, 4H) nM, individual diastereomer (R)): > 1000 nM | IC50 (Homo sapiens, ASPC1, AsPC-1, 4H, individual (S) diastereomer of Ex. 232, read-out: PERK IC50 (AsPC-1, 4H) nM, individual diastereomer (S)): 166 nM
